Laboratory results from patent US20040152784A1, “Pharmaceutical composition and method for treatment of a urea cycle deficiency or sickle-cell anaemia” (Special Products Limited, priority 2002, published 2004).
Values after ≈ are worked out from the molar mass of the structure shown. “Also recorded” adds a separate entry of the source. Read-outs that look alike come from different tables or passages of the source. Residues, ends and D or L forms follow the SMILES beside them.

Tests used:
[1] = cited from earlier work; for Stability / hydrolysis in water: in words
[2] = cited from earlier work
Solubility in water = type: physicochemical; details: in water at 10° C.; read-out: maximum solubility of sodium 4-phenylbutyrate
[3] = tested on: bacterial and fungal growth; test: Prevention of bacterial and fungal growth in the concentrated flavored solution without preservative; type: cell-based; details: 250 mg/ml, no preservative
Description: This may not apply at much lower concentrations. Therefore, the concentrated solution should be diluted by the patient's carer or guardian immediately before it is consumed by the patient. Thus the patient's carer or guardian should not prepare a jug of ready-to-use liquid to last a week or so.

[4] = Bulk density and powder properties; type: physicochemical
Description: A pharmaceutical composition made by either of such methods typically has a bulk density of about 52.6 g/100 ml. […] A 25 g quantity of the granulated pharmaceutical composition will thus approximately half fill a 100 ml bottle.

Structure (SMILES): COC(=O)[C@H](Cc1ccccc1)NC(=O)[C@@H](N)CC(=O)O [Aspartame] (H-Asp-Phe-OMe)
- hydrolyses significantly to phenylalanine (non-sweet) within ([1]; in water): ≤ 6 months
- Stability / hydrolysis in water [1]: hydrolyses to phenylalanine within a few weeks; also recorded: Hydrolyses in water
- solubility [2]: 10 mg/mL (≈ 34 mM)

Structure (SMILES): O=C([O-])CCCc1ccccc1.[Na+] [Sodium 4-phenylbutyrate]
- solubility (Solubility in water): 250 mg/mL
- prevention of bacterial and fungal growth [3]: prevents such growth
- bulk density [4]: about 26.4 g/100 ml
- hygroscopicity [4]: somewhat hygroscopic

Structure (SMILES): CC1=CC(=O)NS(=O)(=O)O1 [Potassium acesulfame]
- Stability / hydrolysis in water [1]: Stable in water
- Dissolution ([2]; in words): Fast dissolution
- Solubility in Water ([2]; in words): Very soluble

Structure (SMILES): O=C1NS(=O)(=O)c2ccccc21.[Na] [Sodium Saccharine]
- Solubility in Water ([2]; in words): Very soluble

Structure (SMILES): O=S(=O)([O-])NC1CCCCC1.[Na+] [Sodium cyclamate]
- Solubility in Water ([2]; in words): Soluble

Structure (SMILES): OC[C@@H](O)[C@@H](O[C@H]1O[C@H](CO)[C@@H](O)[C@H](O)[C@H]1O)[C@H](O)[C@@H](O)CO [Maltitol]
- Solubility in Water ([2]; in words): Very soluble
